Test results reported in ChEMBL document CHEMBL4840349, “Macrocyclic Diterpenoid Constituents of Euphorbia deflexa, an Endemic Spurge from Greece” (J Nat Prod, 2021).
Activity calls are given as the source filed them. The calls are words filed in the database; no cut-off is given here.

Assays:
PC-3 = assay: Cytotoxicity against human PC-3 cells assessed as cell growth inhibition incubated for 68 hrs by MTT assay; type: functional, cell-based; conditions: PC-3, 68 h
HepG2 = assay: Cytotoxicity against human HepG2 cells assessed as cell growth inhibition incubated for 68 hrs by MTT assay; type: functional, cell-based; conditions: HepG2, 68 h
HeLa = assay: Cytotoxicity against human HeLa cells assessed as cell growth inhibition incubated for 68 hrs by MTT assay; type: functional, cell-based
SK-MEL-28 = assay: Cytotoxicity against human SK-MEL-28 cells assessed as cell growth inhibition incubated for 68 hrs by MTT assay; type: functional, cell-based; conditions: SK-MEL-28, 68 h
Staphylococcus aureus = assay: Antibacterial activity against Staphylococcus aureus DSM 20231 incubated for 20 hrs by MTT based double dilution method; type: functional, organism-based
Streptococcus pyogenes = assay: Antibacterial activity against Streptococcus pyogenes DSM 20565-0316-001 incubated for 20 hrs by MTT based double dilution method; type: functional, organism-based

Row | SMILES | IC50 (PC-3) [µM] | IC50 (HepG2) [µM] | IC50 (HeLa) [µM] | IC50 (SK-MEL-28) [µM] | Activity (Staphylococcus aureus) | Activity (Streptococcus pyogenes)
1 | C=C1C(=O)O[C@@H]2C3O[C@]3(C)CC/C=C(\C)CC[C@@H]12 (some centres not stated) | > 10 | 5.6 | 2.1 | 4.9 |  | 
2 | CC(=O)OC[C@@]12Cc3c(ccc(C)c3O)[C@]1(C)[C@@H](OC(C)=O)[C@]1(O)[C@H]([C@@H](OC(=O)c3ccccc3)[C@@H](C)[C@H]1OC(C)=O)[C@H]2OC(C)=O |  |  | > 5.8 | > 10 |  | 
3 | C=C1[C@H](O)[C@H]2[C@@H](OC(=O)c3ccccc3)[C@](C)(OC(C)=O)[C@@H](OC(=O)c3ccccc3)[C@]2(O)[C@@H](O)[C@@H](C)/C=C/C(C)(C)[C@H](O)[C@H](OC(C)=O)[C@H]1OC(C)=O | > 10 | > 10 | 9.9 | > 10 | inactive | inactive
4 | CC(=O)OCC(=O)O[C@@H]1[C@H]2[C@@H](OC(=O)c3ccccc3)[C@@H](C)C[C@]2(O)[C@H](O)[C@]2(O)[C@H](OC(C)=O)[C@@]1(OC(C)=O)C[C@H]1C(=O)C(C)(C)C[C@@H]12 | > 10 | > 10 | > 10 | > 10 |  | 
5 | C/C=C(/C)C(=O)OC[C@@]1(C)[C@H]2[C@@H]3C=C(C)[C@@H](O)[C@]4(O)[C@@H](OC(=O)/C(C)=C\C)C(C)=C[C@@]4(C3=O)[C@H](C)C[C@]21OC(C)=O |  |  | 9.8 | > 10 | inactive | inactive
6 | C/C=C(/C)C(=O)O[C@H]1C(C)=C[C@]23C(=O)[C@@H](C=C(C)[C@@H](O)[C@]12O)[C@H]1[C@@H](C[C@H]3C)C1(C)C | > 10 | > 10 | > 10 | > 10 |  | 
7 | CC(=O)OC[C@@]12Cc3c(ccc(C)c3O)[C@]1(C)[C@@H](OC(C)=O)[C@@]1(O)C[C@@](C)(OC(C)=O)[C@H](OC(=O)c3ccccc3)[C@@H]1[C@H]2OC(C)=O |  |  | > 10 | > 10 |  | 
8 | C/C=C(/C)C(=O)O[C@@H]1C2[C@@H](OC(=O)c3ccccc3)[C@@H](C)C[C@]2(O)C(=O)[C@@](C)(O)[C@H]2CC(C)(C)C(=O)[C@]2(O)[C@H]2O[C@@]12COC(C)=O (some centres not stated) | > 10 | > 10 | > 10 | > 10 | inactive | inactive
